Laboratory results taken from BindingDB's records for PubMed 34286973 (University of Chinese Academy of Sciences, 2021).

Target: E3 ubiquitin-protein ligase Mdm2 (Homo sapiens, UniProt Q00987)
Assay: Binding affinity to human MDM2 assessed as dissociation constant

Sequence of E3 ubiquitin-protein ligase Mdm2 (Q00987 whole entry): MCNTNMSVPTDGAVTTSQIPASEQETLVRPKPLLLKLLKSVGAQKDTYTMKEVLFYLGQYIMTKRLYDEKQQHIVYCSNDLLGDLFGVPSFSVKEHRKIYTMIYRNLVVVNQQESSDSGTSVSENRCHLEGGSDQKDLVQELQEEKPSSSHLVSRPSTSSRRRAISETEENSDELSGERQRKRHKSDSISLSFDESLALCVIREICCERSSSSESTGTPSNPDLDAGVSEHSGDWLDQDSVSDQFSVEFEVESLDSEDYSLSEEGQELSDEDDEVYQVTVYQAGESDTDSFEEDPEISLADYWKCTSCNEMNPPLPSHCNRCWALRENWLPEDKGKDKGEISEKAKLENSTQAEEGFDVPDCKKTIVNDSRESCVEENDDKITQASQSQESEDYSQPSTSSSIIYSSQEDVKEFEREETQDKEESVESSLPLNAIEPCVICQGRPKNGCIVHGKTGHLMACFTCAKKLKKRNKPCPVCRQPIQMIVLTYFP

- Ki: 54 µM
Compound: O=C(CN(Cc1ccc(Cl)cc1)C(=O)c1cc2ccccc2[nH]1)NC1CCCCC1
